Source: patent US4565816A, “Piperazine derivatives and pharmaceutical composition containing them” (Sandoz Ltd., priority 1982, dated 1986)

Tests used:
[1] = tested on: spontaneously beating guinea-pig atria; assay: decrease of heart rate of spontaneously beating guinea-pig atria in vitro; settings: Cavia porcellus, read-out: EC25 (concentration decreasing the rate of the spontaneously beating atria by 25%)
Procedure: For example, in guinea-pig atria in vitro [method of R. P. Hof and G. Scholtysik, J. of Cardiovascular Pharmacology 5, 176-183 (1983)] a decrease of the heart rate of spontaneously beating atria is observed at a bath concentration of from about 1 μM to about 100 μM. The concentration decreasing the rate of the spontaneously beating atria by 25% (EC25 values) for some compounds of the present invention and the standard Alinidin are given in the following Table: […]

mice = assay: inhibition of locomotion in mice; assay type: in vivo, mouse (male, OF-1); settings: Mus musculus, po, 1 hour after administration, minimum dose at which significant inhibition was observed, read-out: Locomotor inhibition EDmin
Procedure: In particular, the compounds of formulae I and VII are useful as neuroleptic agents in the treatment of e.g. psychotic disorders such as schizophrenia, as indicated in standard tests, e.g. by an inhibition of locomotion in mice. In this test groups of 3 male mice (18-24 g, OF-1, Sandoz Basle) received 3.2, 10, 32, 100 and […]. of the test drug. 1 hour after drug administration the mice were observed individually and their locomotion compared with that of control. The locomotion of the animals was observed and the EDmin (the minimum dose at which significant inhibition was observed) determined.

[2] = biological target: T1, ^3 H-Spiperone binding sites (Bos taurus, UniProt P20288); assay: ^3 H-Spiperone binding (calf brain striatal tissue); settings: for IC50: calf brain striatal membranes, 0.1 nM ^3 H-Spiperone, 5×10^-7 M Cinanserin, 40 minutes at room temperature, read-out: Receptor binding IC50 ^3 H-Spiperone; for effect in the ^3 H-Spiperone binding test compared with Clozapine: in words, relative to Clozapine
T1 construct: fresh calf brain striatal tissue was homogenized; from tissue; host or cells: calf brain striatum, membranes
T1 sequence (P20288 whole entry): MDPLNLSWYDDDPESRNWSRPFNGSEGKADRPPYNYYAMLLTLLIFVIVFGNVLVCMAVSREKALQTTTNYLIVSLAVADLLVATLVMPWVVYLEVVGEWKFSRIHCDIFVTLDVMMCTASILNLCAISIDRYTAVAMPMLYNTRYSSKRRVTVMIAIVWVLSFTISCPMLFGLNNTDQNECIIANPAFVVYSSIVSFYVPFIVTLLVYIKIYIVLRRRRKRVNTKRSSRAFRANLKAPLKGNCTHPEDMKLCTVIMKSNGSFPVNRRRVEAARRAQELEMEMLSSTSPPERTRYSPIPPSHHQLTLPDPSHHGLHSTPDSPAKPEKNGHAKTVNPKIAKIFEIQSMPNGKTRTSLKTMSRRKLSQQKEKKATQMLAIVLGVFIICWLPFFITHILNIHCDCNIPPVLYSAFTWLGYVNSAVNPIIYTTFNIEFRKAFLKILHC
Procedure: The compounds of formulae I and VII bind further on ^3 H-Spiperone binding sites in the brain [modified method of J. Leysen et al., Biochem. Pharmac. […] The test was performed as follows: fresh calf brain striatal tissue was homogenized in the 25 fold volume of Tris buffer (pH 7.4, 50 mM, 120 mM sodium chloride) and centrifuged. The pellets were suspended in the 22 fold volume of Tris buffer, incubated for 15 minutes at 37° C. and centrifuged. The pellets were suspended in the 300 fold volume of Tris buffer. […] After incubation for 40 minutes at room temperature, the assay mixtures were raidly filtered through Whatman GF/B filter, the filters washed twice with 5 ml of ice cold Tris buffer and scintillation-counted.

α1-receptors = assay: ^3 H-Prazosin binding assay for α1-receptors (calf brain cortex); settings: calf brain cortex membranes, 0.3 nM ^3 H-Prazosin, pH 7.7, 40 min room temperature; read-out: IC50, inhibition of specific ^3 H-Prazosin binding
Procedure: The compounds of formulae I and VII are furthermore useful as anti-hypertensive agents, as indicated in standard tests, for example in the ^3 H-Prazosin binding assay for α1 -receptors [modified method of Greengrass P., et al., Eur. J. Pharmac. 55, 323-326 (1979)]. The test was performed as follows:
Fresh calf brain cortex tissue is homogenized in a 20 fold volume of Tris-HCl buffer (50 mM, pH 7.7), using a Polytron PT 20, and centrifuged at 30'000 xg for 25 min. The pellets are resuspended in a 13 fold volume of the same buffer, incubated for 15 min at 37° C., and recentrifuged at 50'000 xg for 11 min. The pellets of this centrifugation are frozen at -20° C. and resuspended in a 60 fold volume of the same buffer as above before use for the binding experiment. The composition of the assay mixtures (total volume=2 ml) is as follows: 50 mM Tris-HCl pH 7.7, membranes corresponding to 30 mg of original tissue weight, and 0.3 nM ^3 H-Prazosin. The assays for the definition of nonspecific binding additionally contain phentolamine at a concentration of 10 μM. To assess the potency of drugs in inhibiting specific ^3 H-Prazosin binding (difference between total and nonspecific binding), the test compounds are added to give 5 to 9 different concentrations between 1 nM and 10 μM, each in duplicate. After incubation for 40 min at room temperature, the assay mixtures are rapidly filtered through Whatman GF/B filters and washed twice with 5 ml of ice cold Tris buffer. The radioactivity of the filters is estimated by scintillation counting.

female normotonic rats = assay: blood pressure / heart rate in anaesthetized normotonic rats; assay type: in vivo, rat (female, Sprague-Dawley); settings: Rattus norvegicus, iv; urethane-anaesthetized rats, cumulative i.v. doses 3 to 1443 μg/kg, interpolated; read-out: ED75 (dose required to reduce the blood pressure on the heart rate to 75% of pretreatment values)
Procedure: In another test female normotonic rats (200-350 g, Sprague-Dawley, Suddeutsche Tierfarm, Tuttlingen, FRG) were anaesthetized with urethane (1.5-1.75 g/kg i.p. in 2 portions) and a tracheal cannula was inserted. Blood pressure and heart rate were recorded from the carotid artery by conventional methods. Test drug were administered by the jugular or the femoral vein. Body temperature was maintained at 37° C. by means of a temperature regulator (Alfos MK-4) triggered by a thermistor on the animal. After adaptation, increasing doses of the test drug were injected i.v. to give the following cumulative doses: 3, 13, 43, 143, […] and 1443 μg/kg. ED 75% is the dose required to reduce the blood pressure on the heart rate to 75% of pretreatment values. It was obtained through interpolation. The ED75 of the Example 4 compound is 6 μg, of Example 5s compound 3 μg, of Example 8 g 4 μg and of Guanfacine 57 μg.

IC50 [2] [nM]	SMILES	minimal effective dose (mice) [mg/kg]	further results
306	O=C(CCCN1CCN(c2ccc3[nH]cnc3n2)CC1)c1ccc(F)cc1 [Example 1, 1-(4-Fluorophenyl)-4-[4-(1H-imidazo[4,5-b]pyridin-5-yl)-1-piperazinyl]-1-butanone]	1	effect in the ^3 H-Spiperone binding test compared with Clozapine [2]: stronger effects; EC25 [1]: 7800 nM
246	CCc1nc2ccc(N3CCN(CCCC(=O)c4ccc(F)cc4)CC3)nc2[nH]1 [Example 3i]	3.2	effect in the ^3 H-Spiperone binding test compared with Clozapine [2]: stronger effects
441	O=C(CCCN1CCN(c2cc3[nH]cnc3cn2)CC1)c1ccc(F)cc1 [Example 3r]	≤ 3.2	–
121	Cc1nc2cnc(N3CCN(CCCC(=O)c4ccc(F)cc4)CC3)cc2nc1C [Example 8c]	10	–

Continued, compound first:

SMILES	IC50 [2] [nM]	minimal effective dose (mice) [mg/kg]	further results
C=CCN(C1=NCCN1)c1c(Cl)cccc1Cl [Alinidin, reference compound]	–	–	EC25 [1]: 6500 nM
CN1CCN(C2=Nc3cc(Cl)ccc3Nc3ccccc32)CC1 [Clozapine, reference compound]	–	3.2	–
Cc1nc2ccc(N3CCN(CCCC(=O)c4ccc(F)cc4)CC3)nc2n1C [Example 3d]	–	–	IC50 (α1-receptors): 2.2 nM
CC(=O)Nc1cnc(N2CCN(CCCC(=O)c3ccc(F)cc3)CC2)cc1NC(C)=O [Example 4, 4-[4-(4,5-Diacetylamino-2-pyridinyl)-1-piperazinyl]-1-(4-fluorophenyl)-1-butanone]	–	–	IC50 (α1-receptors): < 1 nM; ED75 (female normotonic rats): 0.006 mg/kg
CC(=O)Nc1ccc(N2CCN(CCCC(=O)c3ccc(F)cc3)CC2)nc1NC(C)=O [Example 5c]	4600	1	–
CC(=O)Nc1cnc(N2CCN(CCCOc3ccc(F)cc3)CC2)cc1NC(C)=O [Example 5s]	–	–	ED75 (female normotonic rats): 0.003 mg/kg
Cc1nc2ccc(N3CCN(CCCC(=O)c4ccc(F)cc4)CC3)nc2nc1C [Example 7, 4-[4-(2,3-Dimethyl-pyrido[2,3-b]pyrazin-6-yl)-1-piperazinyl]-1-(4-fluorophenyl)-1-butanone]	205	10	–
O=C(CCCN1CCN(c2cc3nccnc3cn2)CC1)c1ccc(F)cc1 [Example 8d]	–	–	EC25 [1]: 4000 nM
Fc1ccc(OCCCN2CCN(c3cc4nccnc4cn3)CC2)cc1 [Example 8g]	–	–	ED75 (female normotonic rats): 0.004 mg/kg; EC25 [1]: 2150 nM
N=C(N)NC(=O)Cc1c(Cl)cccc1Cl [Guanfacine, reference compound]	–	–	IC50 (α1-receptors): 3700 nM; ED75 (female normotonic rats): 0.057 mg/kg
